Read-outs that look alike come from different tables or passages of the source.
Assays:
cholesterol absorption = experiment: Inhibition of cholesterol absorption in rats fed 1% cholesterol:0.5% cholic acid diet; format: in vivo, male Sprague-Dawley rats; settings: po, 336 h, rat, dose .03% of the diet, 2 weeks
Procedure: Inhibition of cholesterol absorption was determined by feeding male Sprague-Dawley rats, weighing 150-170 g, a 1% cholesterol:0.5% cholic acid diet for 2 weeks. The diet also contained compounds being tested at a dose of 0.001, 0.003, 0.01, or 0.03% of the diet. Control rats were fed the same diet without any compound. At the end of the test, the rats were sacrificed by decapitation. Blood was collected, centrifuged at […] for 10 minutes at 4° C.; and the serum was then analyzed for cholesterol and triglycerides enzymatically by the method of Trinder, P., Analyst, 77, 321 (1952) on a Centrifichem 400 analyzer. Livers were removed, a 0.4 g sample was taken from the center of the large lobe, and the sample was subjected to saponification using 25% saturated potassium hydroxide in ethanol. The resulting neutral sterols were extracted with petroleum ether and the extract analyzed for cholesterol. The effectiveness of the compound in inhibiting cholesterol absorption was measured by the lowering of either serum cholesterol or liver cholesterol relative the values for control rats.
Compounds which produced statistically significant inhibition of cholesterol absorption are considered to be active. Liver sterol (LS) and serum sterol (SS) values are expressed as a percentage of control values.

[1] = target: T1, fatty acyl CoA: cholesterol acyl transferase (ACAT) (Rattus norvegicus, UniProt O70536); experiment: Inhibition of fatty acyl CoA:cholesterol acyl transferase (ACAT), rat adrenal enzyme; format: biochemical
T1 construct: The supernatant, containing the microsomal fraction, served as the source of the cholesterol-esterifying enzyme; from tissue; host or cells: rat adrenals, supernatant of 1,000 x g centrifugation containing the microsomal fraction
T1 sequence (O70536 1-545): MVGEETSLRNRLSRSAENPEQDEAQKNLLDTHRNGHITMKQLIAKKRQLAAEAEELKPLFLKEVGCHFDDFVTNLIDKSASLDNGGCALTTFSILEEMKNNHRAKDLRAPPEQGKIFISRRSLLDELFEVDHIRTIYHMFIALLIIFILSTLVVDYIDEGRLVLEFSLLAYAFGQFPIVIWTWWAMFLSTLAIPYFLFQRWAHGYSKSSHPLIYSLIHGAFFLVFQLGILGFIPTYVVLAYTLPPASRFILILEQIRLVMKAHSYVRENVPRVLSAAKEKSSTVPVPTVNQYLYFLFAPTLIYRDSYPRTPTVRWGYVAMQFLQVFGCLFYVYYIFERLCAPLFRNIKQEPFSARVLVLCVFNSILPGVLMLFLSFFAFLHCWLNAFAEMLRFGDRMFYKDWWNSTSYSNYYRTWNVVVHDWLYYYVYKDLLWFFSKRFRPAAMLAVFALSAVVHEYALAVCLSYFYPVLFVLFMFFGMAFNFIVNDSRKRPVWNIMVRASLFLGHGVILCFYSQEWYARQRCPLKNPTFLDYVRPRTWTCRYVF
Outline: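 Read-out was scintillation counting of [14C]cholesteryl ester, isolated by TLC, after 10 min at 37° C with [14C]oleoyl CoA. Beforehand, compound (final 5.2 μg/ml in single-concentration tests) was preincubated 10 min at 37° C with BSA and rat adrenal microsomal supernatant in pH 7.4 phosphate. Results given as percent inhibition versus control or IC50 over several concentrations.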

[2] = read-out: LS (liver sterol), percentage of control values
[3] = read-out: SS (serum sterol), percentage of control values
[4] = rat adrenal ACAT, final concentration 5.2 μg/ml, read-out: % Inhibition

| SMILES | response vs control in vivo at 0.03 % (cholesterol absorption; [2]) [%] | response vs control in vivo at 0.03 % (cholesterol absorption; [3]) [%] | inhibition at 5.2 µg/mL [1, 4] [%] | inhibition at 5.2 µg/mL [1] [%] |
| --- | --- | --- | --- | --- |
| COc1ccccc1CN(Cc1ccccc1F)C(=O)Nc1ccc(C)cc1C [1-(2-Fluorobenzyl)-1-(2-methoxybenzyl)-3-(2,4-dimethylphenyl)urea] | 20 | 45 | 41.5 | – |
| CCCCCCCN(Cc1ccco1)C(=O)Nc1cc(C)c(C)cc1C [1-(2-Furanylmethyl)-1-heptyl-3-(2,4,5-trimethylphenyl)urea] | 38 | 44 | 93.8 | – |
| CCCCCCCN(Cc1ccco1)C(=O)Nc1c(Cl)cc(Cl)cc1Cl [1-(2-Furanylmethyl)-1-heptyl-3-(2,4,6-trichlorophenyl)urea] | 34 | 37 | 96.1 | – |
| CC(C)(C)CCN(Cc1cccs1)C(=O)Nc1c(Cl)cc(Cl)cc1Cl [1-(3,3-Dimethylbutyl)-1-(2-thienylmethyl)-3-(2,4,6-trichlorophenyl)urea] | 56 | 58 | – | 90 |
| CC(C)(C)CCN(Cc1ccc(Cl)cc1)C(=O)Nc1c(Cl)cc(Cl)cc1Cl [1-(3,3-Dimethylbutyl)-1-(4-chlorobenzyl)-3-(2,4,6-trichlorophenyl)urea] | 41 | 73 | – | 90 |
| Cc1cc(Cl)cc(C)c1NC(=O)N(CCC(C)(C)C)Cc1ccc(Cl)cc1 [1-(3,3-Dimethylbutyl)-1-(4-chlorobenzyl)-3-(4-chloro-2,6-dimethylphenyl)urea] | 25 | 46 | – | 90 |
| Cc1cc(Cl)ccc1NC(=O)N(CCC(C)(C)C)Cc1ccc(Cl)cc1 [1-(3,3-Dimethylbutyl)-1-(4-chlorobenzyl)-3-(4-chloro-2-methylphenyl)urea] | 60 | 50 | – | 90 |
| Cc1cc(NC(=O)N(CCC(C)(C)C)Cc2ccccc2)c(C)cc1Cl [1-(3,3-Dimethylbutyl)-1-(benzyl)-3-(4-chloro-2,5-dimethylphenyl)urea] | 30 | 55 | – | 90 |
| CC(C)(C)CCN(Cc1ccc(CC(C)(C)C)cc1)C(=O)Nc1c(Cl)cc(Cl)cc1Cl [1-(3,3-Dimethylbutyl)-1-[4-(2,2-dimethylpropyl)benzyl]-3-(2,4,6-trichlorophenyl)urea] | 15 | 32 | – | 90 |
| CC(C)(C)CCN(Cc1ccc(CC(C)(C)C)cc1)C(=O)Nc1ccc(F)cc1F [1-(3,3-Dimethylbutyl)-1-[4-(2,2-dimethylpropyl)benzyl]-3-(2,4-difluorophenyl)urea] | 19 | 35 | – | 90 |
| Cc1cc(Cl)cc(C)c1NC(=O)N(CCC(C)(C)C)Cc1ccc(CC(C)(C)C)cc1 [1-(3,3-Dimethylbutyl)-1-[4-(2,2-dimethylpropyl)benzyl]-3-(4-chloro-2,6-dimethylphenyl)urea] | 11 | 31 | – | 90 |
| Cc1cc(Cl)ccc1NC(=O)N(CCC(C)(C)C)Cc1ccc(CC(C)(C)C)cc1 [1-(3,3-Dimethylbutyl)-1-[4-(2,2-dimethylpropyl)benzyl]-3-(4-chloro-2-methylphenyl)urea] | 20 | 51 | – | 90 |
| CCCCOc1ccc(CN(CCC(C)(C)C)C(=O)Nc2c(Cl)cc(Cl)cc2Cl)cc1 [1-(3,3-Dimethylbutyl)-1-[4-(n-butoxy)benzyl]-3-(2,4,6-trichlorophenyl)urea] | 20 | 52 | – | 90 |
| CCCCOc1ccc(CN(CCC(C)(C)C)C(=O)Nc2ccc(F)cc2F)cc1 [1-(3,3-Dimethylbutyl)-1-[4-(n-butoxy)benzyl]-3-(2,4-difluorophenyl)urea] | 32 | 42 | – | 90 |
| CCCCOc1ccc(CN(CCC(C)(C)C)C(=O)Nc2ccc(Cl)cc2C)cc1 [1-(3,3-Dimethylbutyl)-1-[4-(n-butoxy)benzyl]-3-(4-chloro-2-methylphenyl)urea] | 22 | 61 | – | 90 |
| CCCCc1ccc(CN(CCC(C)(C)C)C(=O)Nc2c(Cl)cc(Cl)cc2Cl)cc1 [1-(3,3-Dimethylbutyl)-1-[4-(n-butyl)benzyl]-3-(2,4,6-trichlorophenyl)urea] | 13 | 37 | – | 90 |
| CCCCc1ccc(CN(CCC(C)(C)C)C(=O)Nc2ccc(F)cc2F)cc1 [1-(3,3-Dimethylbutyl)-1-[4-(n-butyl)benzyl]-3-(2,4-difluorophenyl)urea] | 30 | 39 | – | 90 |
| CCCCc1ccc(CN(CCC(C)(C)C)C(=O)Nc2c(C)cc(Cl)cc2C)cc1 [1-(3,3-Dimethylbutyl)-1-[4-(n-butyl)benzyl]-3-(4-chloro-2,6-dimethylphenyl)urea] | 12 | 28 | – | 90 |
| CCCCc1ccc(CN(CCC(C)(C)C)C(=O)Nc2ccc(Cl)cc2C)cc1 [1-(3,3-Dimethylbutyl)-1-[4-(n-butyl)benzyl]-3-(4-chloro-2-methylphenyl)urea] | 13 | 46 | 90.5 | – |
| CC(C)(C)CCN(Cc1ccccc1)C(=O)Nc1ccc(F)cc1F [1-(3,3-Dimethylbutyl)-1-benzyl-3-(2,4-difluorophenyl)urea] | 70 | 71 | – | 90 |
| Cc1cc(Cl)ccc1NC(=O)N(CCC(C)(C)C)Cc1ccccc1 [1-(3,3-Dimethylbutyl)-1-benzyl-3-(4-chloro-2-methylphenyl)urea] | 51 | 64 | – | 90 |
| Cc1ccc(NC(=O)N(Cc2ccc(C)c(C)c2)Cc2ccccc2Cl)c(C)c1 [1-(3,4-Dimethylbenzyl)-1-(2-chlorobenzyl)-3-(2,4-dimethylphenyl)urea] | 15 | 44 | 92.9 | – |
| CCCCc1ccc(CN(CCCCCCOS(C)(=O)=O)C(=O)Nc2ccc(Cl)cc2C)cc1 [1-[(4-Butylphenyl)methyl]-3-(4-chloro-2-methylphenyl)-1-[6-[(methylsulfonyl)oxy]hexyl]urea] | – | – | – | 90 |
| CCCCCCCN(Cc1ccc(CCCC)cc1)C(=O)Nc1c(F)cc(F)cc1F [1-[(4-butylphenyl)methyl]-1-(n-heptyl)-3-[2,4,6-trifluorophenyl]urea] | – | – | – | 90 |
| CCCCc1ccc(CN(CCC(C)(C)C)C(=O)Nc2c(F)cc(F)cc2F)cc1 [1-[(4-butylphenyl)methyl]-1-[3,3-dimethylbutyl]-3-[2,4,6-trifluorophenyl]urea] | – | – | – | 90 |

Reference: patent publication US4623662A, “Antiatherosclerotic ureas and thioureas” (American Cyanamid Company, priority 1985, dated 1986)
